The text below walks through data of US10004701B2, “Methods and compositions for treating infection” (UNIVERSITY OF ROCHESTER, priority 2012, dated 2018).

Like-named read-outs stand apart in the source and are kept apart here.

Holding throughout (test): AK assay 384-well format, Prestwick library screening
Assay [1] has as its system A. baumannii strain 98-37-09. It is filed as cell-based, Acinetobacter baumannii. The conditions noted are these: 50 μM final drug concentration; for fold induction at 50 µM: Acinetobacter baumannii, 983709, 3 h.
The test system of assay [2] is P. aeruginosa. In kind it is cell-based, Pseudomonas aeruginosa. As to conditions: 50 μM final drug concentration; for fold induction at 50 µM: Pseudomonas aeruginosa, 3 h.
Assay [3] deals with E. coli. In kind it is cell-based, Escherichia coli. As to conditions: 50 μM final drug concentration; for fold induction at 50 µM: Escherichia coli, 3 h.
Assay [4] concerns S. aureus strain USA300-0114. It is filed as cell-based, Staphylococcus aureus. The conditions noted are these: 50 μM final drug concentration; for fold induction at 50 µM: Staphylococcus aureus, USA300, 3 h.
For assay [5], the system named is K. pneumoniae. It is filed as cell-based, Klebsiella pneumoniae. The conditions noted are these: 50 μM final drug concentration; for fold induction at 50 µM: Klebsiella pneumoniae, 3 h.
In assay [6] the test system is E. cloacae. In kind it is cell-based, Enterobacter cloacae. As to conditions: 50 μM final drug concentration; for fold induction at 50 µM: Enterobacter cloacae, 3 h.
Assay [7] relates to E. faecium. It is filed as cell-based, Enterococcus faecium. As to conditions: 50 μM final drug concentration; for fold induction at 50 µM: Enterococcus faecium, 3 h.
Where [8] appears, read: planktonic, cutoff for positive 3-fold increase, read-out: AK-based Prestwick Library Screening Results, A. baumannii (fold increase in extracellular AK activity).
Where [9] appears, read: planktonic, cutoff for positive 3-fold increase, read-out: AK-based Prestwick Library Screening Results, P. aeruginosa (fold increase in extracellular AK activity).
The mark [10] stands for this setting: planktonic, cutoff for positive 3-fold increase, read-out: AK-based Prestwick Library Screening Results, E. coli (fold increase in extracellular AK activity).
The mark [11] stands for this setting: planktonic, cutoff for positive 3-fold increase, read-out: AK-based Prestwick Library Screening Results, S. aureus (fold increase in extracellular AK activity).
The mark [12] stands for this setting: planktonic, cutoff for positive 3-fold increase, read-out: AK-based Prestwick Library Screening Results, K. pneumoniae (fold increase in extracellular AK activity).
Where [13] appears, read: planktonic, cutoff for positive 3-fold increase, read-out: AK-based Prestwick Library Screening Results, E. cloacae (fold increase in extracellular AK activity).
Setting [14] is: planktonic, cutoff for positive 3-fold increase, read-out: AK-based Prestwick Library Screening Results, E. faecium (fold increase in extracellular AK activity).

Regarding `CO[C@H](C)[C@](O)(C(=O)OCC1=CCN2CC[C@H](O)[C@@H]12)C(C)C` [Heliotrine], the fold induction at 50 µM was found to be 1 in assay [1] (planktonic, […], read-out: AK-based Prestwick Library Screening Results, A. baumannii (fold increase in extracellular AK activity)); 1 in assay [2] (planktonic, […], read-out: AK-based Prestwick Library Screening Results, P. aeruginosa (fold increase in extracellular AK activity)); 1.2 in assay [3] (planktonic, […], read-out: AK-based Prestwick Library Screening Results, E. coli (fold increase in extracellular AK activity)); 1.4 in assay [4] (planktonic, […], read-out: AK-based Prestwick Library Screening Results, S. aureus (fold increase in extracellular AK activity)); 1 in assay [5] (planktonic, […], read-out: AK-based Prestwick Library Screening Results, K. pneumoniae (fold increase in extracellular AK activity)); 1.7 in assay [6] (planktonic, […], read-out: AK-based Prestwick Library Screening Results, E. cloacae (fold increase in extracellular AK activity)). Also, in assay [7] (planktonic, […], read-out: AK-based Prestwick Library Screening Results, E. faecium (fold increase in extracellular AK activity)), the fold induction at 50 µM stood at 1.

For `C(#CCN1CCCC1)CN1CCCC1.Cl.Cl` [Tremorine dihydrochloride], the “AK-based Prestwick Library Screening Results, A. baumannii (increase in extracellular AK activity)” value in assay [1] (planktonic A. baumannii, […]) is on record as 0.7. For the same compound, the “AK-based Prestwick Library Screening Results, P. aeruginosa (increase in extracellular AK activity)” value in assay [2] (planktonic P. aeruginosa, […]) came to 0.6. Further, in assay [3] (planktonic E. coli, […]), the “AK-based Prestwick Library Screening Results, E. coli (increase in extracellular AK activity)” value was 0.7. In addition, in assay [4] (planktonic S. aureus, […]), the “AK-based Prestwick Library Screening Results, S. aureus (increase in extracellular AK activity)” value is given as 0.5. For the same compound, the “AK-based Prestwick Library Screening Results, K. pneumoniae (increase in extracellular AK activity)” value in assay [5] (planktonic K. pneumoniae, […]) turned out to be 0.6. Also, the “AK-based Prestwick Library Screening Results, E. cloacae (increase in extracellular AK activity)” value in assay [6] (planktonic E. cloacae, […]) is recorded as 0.7. The “AK-based Prestwick Library Screening Results, E. faecium (increase in extracellular AK activity)” value in assay [7] (planktonic E. faecium, […]) was determined as 1.0.

Consider Lycorine hydrochloride, for which the “AK-based Prestwick Library Screening Results, A. baumannii (fold increase in extracellular AK activity)” value in assay [1] (planktonic, […]) was 1.0. In addition, the “AK-based Prestwick Library Screening Results, P. aeruginosa (fold increase in extracellular AK activity)” value in assay [2] (planktonic, […]) amounted to 1.1. The “AK-based Prestwick Library Screening Results, E. coli (fold increase in extracellular AK activity)” value in assay [3] (planktonic, […]) was found to be 1.0. The “AK-based Prestwick Library Screening Results, S. aureus (fold increase in extracellular AK activity)” value in assay [4] (planktonic, […]) turned out to be 1.4. For the same compound, in assay [5] (planktonic, […]), the “AK-based Prestwick Library Screening Results, K. pneumoniae (fold increase in extracellular AK activity)” value is 0.8. Also, the “AK-based Prestwick Library Screening Results, E. cloacae (fold increase in extracellular AK activity)” value in assay [6] (planktonic, […]) amounted to 1.5. In addition, in assay [7] (planktonic, […]), the “AK-based Prestwick Library Screening Results, E. faecium (fold increase in extracellular AK activity)” value is 1.0.

For `O=C(O)c1ccccc1OP(=O)(O)O` [Fosfosal], the fold induction at 50 µM came to 0.8 in assay [1] (planktonic, cutoff for positive-scoring molecules 3-fold increase, read-out: AK-based Prestwick Library Screening Results, A. baumannii (fold increase in extracellular AK activity)); 0.7 in assay [2] (planktonic, cutoff for positive-scoring molecules 3-fold increase, read-out: AK-based Prestwick Library Screening Results, P. aeruginosa (fold increase in extracellular AK activity)); 0.7 in assay [3] (planktonic, cutoff for positive-scoring molecules 3-fold increase, read-out: AK-based Prestwick Library Screening Results, E. coli (fold increase in extracellular AK activity)); 0.7 in assay [4] (planktonic, cutoff for positive-scoring molecules 3-fold increase, read-out: AK-based Prestwick Library Screening Results, S. aureus (fold increase in extracellular AK activity)); 0.6 in assay [5] (planktonic, cutoff for positive-scoring molecules 3-fold increase, read-out: AK-based Prestwick Library Screening Results, K. pneumoniae (fold increase in extracellular AK activity)); 0.8 in assay [6] (planktonic, cutoff for positive-scoring molecules 3-fold increase, read-out: AK-based Prestwick Library Screening Results, E. cloacae (fold increase in extracellular AK activity)). In addition, the fold induction at 50 µM in assay [7] (planktonic, cutoff for positive-scoring molecules 3-fold increase, read-out: AK-based Prestwick Library Screening Results, E. faecium (fold increase in extracellular AK activity)) is 0.9.

Take `COc1cc([S+](C)[O-])ccc1-c1nc2ncccc2[nH]1` (stereo not shown) [Sulmazole]: the fold induction at 50 µM in assay [1] (setting [8]) was 0.3; in assay [2] (setting [9]), 0.3; in assay [3] (setting [10]), 0.3; in assay [4] (setting [11]), 0.4; in assay [5] (setting [12]), 0.5; in assay [6] (setting [13]) it was 0.3. The fold induction at 50 µM in assay [7] (setting [14]) is 0.9.

For `O=C(/C=C/C=C/c1ccc2c(c1)OCO2)N1CCCCC1` [Piperine], the fold induction at 50 µM turned out to be 0.4 in assay [1] (setting [8]); 0.4 in assay [2] (setting [9]); 0.4 in assay [3] (setting [10]); 0.2 in assay [4] (setting [11]); 0.3 in assay [5] (setting [12]); 1.6 in assay [6] (setting [13]). Besides, the fold induction at 50 µM in assay [7] (setting [14]) worked out at 0.3.

Turning to `Cc1[nH]c(=O)c(C#N)cc1-c1ccncc1` [Milrinone], the fold induction at 50 µM in assay [1] (planktonic A. baumannii, positive cutoff 3-fold increase, read-out: AK-based Prestwick library screening result, A. baumannii (fold increase in extracellular AK activity)) stood at 0.8; in assay [2] (planktonic P. aeruginosa, positive cutoff 3-fold increase, read-out: AK-based Prestwick library screening result, P. aeruginosa (fold increase in extracellular AK activity)), 0.9; in assay [3] (planktonic E. coli, positive cutoff 3-fold increase, read-out: AK-based Prestwick library screening result, E. coli (fold increase in extracellular AK activity)), 0.8; in assay [4] (planktonic S. aureus, positive cutoff 3-fold increase, read-out: AK-based Prestwick library screening result, S. aureus (fold increase in extracellular AK activity)), 0.7; in assay [5] (planktonic K. pneumoniae, positive cutoff 3-fold increase, read-out: AK-based Prestwick library screening result, K. pneumoniae (fold increase in extracellular AK activity)) it was 0.8; in assay [6] (planktonic E. cloacae, positive cutoff 3-fold increase, read-out: AK-based Prestwick library screening result, E. cloacae (fold increase in extracellular AK activity)) it was 0.9. The fold induction at 50 µM in assay [7] (planktonic E. faecium, positive cutoff 3-fold increase, read-out: AK-based Prestwick library screening result, E. faecium (fold increase in extracellular AK activity)) worked out at 0.9.

Consider `Nc1c2c(nc3ccccc13)CCCC2O.O=C(O)/C=C\C(=O)O` (racemic) [Hydroxytacrine maleate (R,S)], for which the “AK-based Prestwick Library Screening Results, A. baumannii (increase in extracellular AK activity)” value in assay [1] (planktonic A. baumannii, cutoff for positive-scoring molecules 3-fold increase) amounted to 1.0. Moreover, the “AK-based Prestwick Library Screening Results, P. aeruginosa (increase in extracellular AK activity)” value in assay [2] (planktonic P. aeruginosa, cutoff for positive-scoring molecules 3-fold increase) is given as 1.0. Further, the “AK-based Prestwick Library Screening Results, E. coli (increase in extracellular AK activity)” value in assay [3] (planktonic E. coli, […]) amounted to 1.3. Besides, the “AK-based Prestwick Library Screening Results, S. aureus (increase in extracellular AK activity)” value in assay [4] (planktonic S. aureus, cutoff for positive-scoring molecules 3-fold increase) amounted to 3.0. Moreover, the “AK-based Prestwick Library Screening Results, K. pneumoniae (increase in extracellular AK activity)” value in assay [5] (planktonic K. pneumoniae, cutoff for positive-scoring molecules 3-fold increase) turned out to be 1.0. Further, the “AK-based Prestwick Library Screening Results, E. cloacae (increase in extracellular AK activity)” value in assay [6] (planktonic E. cloacae, cutoff for positive-scoring molecules 3-fold increase) amounted to 1.3. In addition, the “AK-based Prestwick Library Screening Results, E. faecium (increase in extracellular AK activity)” value in assay [7] (planktonic E. faecium, cutoff for positive-scoring molecules 3-fold increase) was 1.0.

Consider Bromocryptine mesylate, for which the “AK-based Prestwick Library Screening Results, A. baumannii (increase in extracellular AK activity)” value in assay [1] (384-well format, […]) stood at 1.4. The “AK-based Prestwick Library Screening Results, P. aeruginosa (increase in extracellular AK activity)” value in assay [2] (384-well format, […]) was 1.1. The “AK-based Prestwick Library Screening Results, E. coli (increase in extracellular AK activity)” value in assay [3] (384-well format, […]) is 1.3. Further, the “AK-based Prestwick Library Screening Results, S. aureus (increase in extracellular AK activity)” value in assay [4] (384-well format, […]) was determined as 0.6. For the same compound, the “AK-based Prestwick Library Screening Results, K. pneumoniae (increase in extracellular AK activity)” value in assay [5] (384-well format, […]) was 1.1. In assay [6] (384-well format, […]), the “AK-based Prestwick Library Screening Results, E. cloacae (increase in extracellular AK activity)” value is on record as 1.4. Moreover, the “AK-based Prestwick Library Screening Results, E. faecium (increase in extracellular AK activity)” value in assay [7] (384-well format, […]) was found to be 0.9.

Consider Retrorsine, for which, in assay [1] (planktonic, […]), the “AK-based Prestwick Library Screening Results, A. baumannii (fold increase in extracellular AK activity)” value is 1.2. In addition, the “AK-based Prestwick Library Screening Results, P. aeruginosa (fold increase in extracellular AK activity)” value in assay [2] (planktonic, […]) is reported as 1.2. For the same compound, in assay [3] (planktonic, […]), the “AK-based Prestwick Library Screening Results, E. coli (fold increase in extracellular AK activity)” value came out at 1.3. For the same compound, in assay [4] (planktonic, […]), the “AK-based Prestwick Library Screening Results, S. aureus (fold increase in extracellular AK activity)” value turned out to be 1.2. Also, in assay [5] (planktonic, […]), the “AK-based Prestwick Library Screening Results, K. pneumoniae (fold increase in extracellular AK activity)” value stood at 1.2. Also, the “AK-based Prestwick Library Screening Results, E. cloacae (fold increase in extracellular AK activity)” value in assay [6] (planktonic, […]) came to 1.5. Also, the “AK-based Prestwick Library Screening Results, E. faecium (fold increase in extracellular AK activity)” value in assay [7] (planktonic, […]) was found to be 1.0.
